Where “and” joins values, the source holds several entries; their conditions need not be identical. Equal entries are not always repeated. Entries after “also recorded” stand apart in the source; their conditions may differ. Where two headings read alike, the source gives them in different places.
Key:
[1] = Anti-obesity test (body weight, food consumption); type: in vivo, mouse (male A/J); settings: for mean weekly weight / mean weekly weight ± S.D.: n = 5; for mean weekly weight ± S.D.: 0.36% of diet; for weekly weight (Table 13): 0.54% in food
Procedure, shortened: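 Male A/J mice, 5 weeks old on arrival, housed 5 per cage at 24 °C on a 12 h light/dark cycle, were given steroid in chow from one week after arrival; dietary concentrations were varied, or 0.54% or 0.36%. Body weight and food consumption (food added minus remaining) were recorded weekly.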

[2] = test system: seminal vesicles plus prostate glands; test: Androgenic and anti-androgenic activity (seminal vesicle plus prostate weight); type: in vivo, mouse (male A/J); settings: for Mean Seminal Vesicle plus Prostate Weight ± S.D.: 4 weeks; for androgenic / anti-androgenic effect, seminal vesicle plus prostate weight (in words): diet, male A/J mice
Experimental: Male A/J mice (5 weeks old) were obtained from the Jackson Laboratory and were housed in polycarbonate cages (5 mice/cage) in animal quarters maintained at 24°±1° C. with 12 hours of light and 12 hours of darkness each day. One week after arrival, mice were placed on a chow diet containing either 0.18% or 0.09% 16 or without steroid. Mice were weighed weekly. After 4 weeks, the mice were killed, and the seminal vesicles plus prostate glands were dissected out and weighed.
(a) Male A/J mice (5 weeks old) were obtained from the Jackson Laboratory and were housed in polycarbonate cages (5 mice/cage) in animal quarters maintained at 24°[…] C. with 12 hours of light and 12 hours of darkness each day. One week after arrival, the mice were placed on a chow diet containing one of the test compounds of the present invention at 0.36%. After 4 weeks of treatment, the above mice were killed, and the seminal vesicles and prostate glands were dissected out and weighed.

C57BL/KsJ-db/db mice = test: Anti-hyperglycemic activity (blood glucose); type: in vivo, mouse (C57BL/KsJ-db/db); settings: for blood glucose lowering compared with DHEA (in words): compound 16 0.2% vs DHEA 0.4% of diet
Experimental: C57BL/KsJ-db/db 8 week old female mice were obtained and housed in polycarbonate cages in animal quarters maintained at 24° C. with 12 h of light and 12 h of darkness each day.
Mice were placed on a control chow or a chow diet containing either 0.4% DHEA or 0.2% of compound 16.
For determination of blood glucose levels, mice were bled from the orbital sinus using a heparinized capillary tube. 0.2 ml of blood was added to 1.8 ml of water to hemolyze the blood and glucose concentration was determined using the glucose oxidase assay.

[3] = target: T1, purified bovine adrenal G6PDH (Bos taurus, UniProt F1MMK2); test: Inhibition of purified bovine adrenal G6PDH; type: biochemical; settings: for inhibition at 0.1 µM: Conc. 0.1 μm; for inhibition at 0.1 µM / inhibition at 1 µM / inhibition at 10 µM: read-out: Percent Inhibition (G6PDH)
T1 construct: full-length, wild type, no tag
Procedure, shortened: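 Inhibition of purified bovine adrenal G6PDH enzyme activity, run by the published Oertel and Rebelein (1969) procedure.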

rat uterus = test: Estrogenic and anti-estrogenic activity (uterine weight, s.c., CD rats); type: in vivo, rat (female CD); settings: for Mean Uterine Weight ± S.D.: 3 days, DHEA vs 16 experiment; for estrogenic / anti-estrogenic effect, uterine weight (in words): s.c., 60 mg/kg or higher, female CD rats
Experimental: Female CD rats, 26-27 days old, were used. Rats were injected subcutaneously for 3 days with either DHEA or 16 in propylene glycol. Control rats received propylene glycol alone. The rats were killed on the 4th day and the uteri were removed and weighed.
Female CD rats, 26-27 days old, were injected subcutaneously for 3 days with one of the compounds of the present invention at 60 mg/kg in propylene glycol. Controls received propylene glycol alone. On the 4th day the rats were killed and the uteri were dissected out and weighed.

T1 sequence (F1MMK2 31-70): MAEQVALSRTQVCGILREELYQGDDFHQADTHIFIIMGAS
T1 sequence (F1MMK2 101-575): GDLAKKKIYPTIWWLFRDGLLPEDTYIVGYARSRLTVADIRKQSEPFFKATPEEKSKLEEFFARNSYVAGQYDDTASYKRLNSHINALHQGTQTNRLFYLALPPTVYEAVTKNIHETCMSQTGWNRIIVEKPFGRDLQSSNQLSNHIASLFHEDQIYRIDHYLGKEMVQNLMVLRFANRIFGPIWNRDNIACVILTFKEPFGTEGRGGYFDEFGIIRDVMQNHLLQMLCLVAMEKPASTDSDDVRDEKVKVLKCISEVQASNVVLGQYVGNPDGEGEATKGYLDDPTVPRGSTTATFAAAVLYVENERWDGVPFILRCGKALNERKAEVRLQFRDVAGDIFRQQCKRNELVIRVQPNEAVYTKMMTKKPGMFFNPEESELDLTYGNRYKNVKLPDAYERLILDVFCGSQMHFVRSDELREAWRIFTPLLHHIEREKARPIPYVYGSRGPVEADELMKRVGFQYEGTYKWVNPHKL

C[C@H]1CC[C@@]2(C)C(=CC[C@@H]3[C@@H]2CC[C@]2(C)C(=O)CC[C@@H]32)C1 [Compound 16, 3β-methyl-5-androsten-17-one]
Anti-obesity Activity relative to DHEA [1]: more than 2 X | mean weekly weight ([1]; 0.18% of diet, week 0): 22.6 ± 2.7 grams | mean weekly weight ([1]; 0.18% of diet, week 1): 19.8 ± 2.3 grams | mean weekly weight ([1]; 0.18% of diet, week 2): 19.4 ± 2.1 grams | mean weekly weight ([1]; 0.18% of diet, week 3): 19.4 ± 2.1 grams | mean weekly weight ([1]; 0.18% of diet, week 4): 19.6 ± 2.2 grams | mean weekly weight ([1]; 0.35% of diet, week 0): 22.0 ± 2.5 grams | mean weekly weight ([1]; 0.35% of diet, week 1): 16.8 ± 1.6 grams | mean weekly weight ([1]; 0.35% of diet, week 2): 18.2 ± 0.8 grams | mean weekly weight ([1]; 0.35% of diet, week 3): 17.2 ± 1.7 grams | mean weekly weight ([1]; 0.35% of diet, week 4): 17.0 ± 1.2 grams | mean weekly weight ± S.D. ([1]; week 0): 23.3 ± 2.5 grams | mean weekly weight ± S.D. ([1]; week 1): 18 ± 1.5 grams | mean weekly weight ± S.D. ([1]; week 2): 17.1 ± 1.6 grams | Mean Seminal Vesicle plus Prostate Weight ± S.D. ([2]; 0.09% of diet, n = 6): 4.0 ± 0.7 mg/100 gm body weight | Mean Seminal Vesicle plus Prostate Weight ± S.D. ([2]; 0.18% of diet, n = 6): 3.4 ± 0.11 mg/100 gm body weight | Mean Seminal Vesicle plus Prostate Weight ± S.D. ([2]; 0.36% of diet, n = 5): 3.0 ± 0.3 mg/100 gm body weight | androgenic / anti-androgenic effect, seminal vesicle plus prostate weight (in words) [2]: significantly reduced the weight of the seminal vesicles and prostate glands; also recorded: significantly reduced the seminal vesicle plus prostate gland weight | androgenic / anti-androgenic effect, seminal vesicle plus prostate weight (in words) ([2]; listed as Cmpd. 16): significantly reduced seminal vesicle plus prostate weight | Blood Glucose Levels (C57BL/KsJ-db/db mice; 0.2% of diet, week 0, listed as Cpd 16): 216 ± 61 mg/deciliter | Blood Glucose Levels (C57BL/KsJ-db/db mice; 0.2% of diet, week 0, listed as Cpd. 16): 244 ± 32 mg/deciliter | Blood Glucose Levels (C57BL/KsJ-db/db mice; 0.2% of diet, week 1, listed as Cpd 16): 135 ± 15 mg/deciliter | Blood Glucose Levels (C57BL/KsJ-db/db mice; 0.2% of diet, week 1, listed as Cpd. 16): 143 ± 21 mg/deciliter | Blood Glucose Levels (C57BL/KsJ-db/db mice; 0.2% of diet, week 2, listed as Cpd 16): 118 ± 12 mg/deciliter | Blood Glucose Levels (C57BL/KsJ-db/db mice; 0.2% of diet, week 2, listed as Cpd. 16): 134 ± 13 mg/deciliter | Blood Glucose Levels (C57BL/KsJ-db/db mice; 0.2% of diet, week 3): 102 ± 8 mg/deciliter | Blood Glucose Levels (C57BL/KsJ-db/db mice; 0.2% of diet, week 4): 105 ± 5 mg/deciliter | Blood Glucose Levels (C57BL/KsJ-db/db mice; after 0.2% of diet, 24 hrs. on control diet): 147 ± 10 mg/deciliter | Blood Glucose Levels (C57BL/KsJ-db/db mice; after 0.2% of diet, 48 hrs. on control diet): 262 ± 23 mg/deciliter | blood glucose lowering compared with DHEA (in words) (C57BL/KsJ-db/db mice): more effective in lowering blood glucose concentration | blood glucose lowering compared with DHEA (in words) (C57BL/KsJ-db/db mice; listed as compound 16): significantly more slowly in the mice that had received compound 16 | inhibition at 0.1 µM [3]: 25% | inhibition at 1 µM ([3]; Conc. 1 μm): 40% | inhibition at 10 µM ([3]; Conc. 10 μm): 53% | Mean Uterine Weight ± S.D. (rat uterus; 60 mg/kg s.c.): 126 ± 87 mg/100 gm body weight | Mean Uterine Weight ± S.D. (rat uterus; 120 mg/kg s.c.): 111 ± 27 mg/100 gm body weight | estrogenic / anti-estrogenic effect, uterine weight (in words) (rat uterus; 60 mg/kg): reduction in uterine weight; also recorded: apparently acts as an anti-estrogen | estrogenic / anti-estrogenic effect, uterine weight (in words) (rat uterus; listed as cmpd. 16, 60 mg/kg): significantly greater than that of the cmpd. 21 treated rats; also recorded: highly significant anti-estrogenic activity

C[C@]12CC[C@H](O)CC1=CC[C@@H]1[C@@H]2CC[C@]2(C)C(=O)CC[C@@H]12 [DHEA, 3β-Hydroxy-5-androst-en-17-one, reference compound]
mean weekly weight ([1]; 0.18% of diet, week 0): 22.4 ± 1.8 grams | mean weekly weight ([1]; 0.18% of diet, week 1): 20.4 ± 1.9 grams | mean weekly weight ([1]; 0.18% of diet, week 2): 21.1 ± 0.5 grams | mean weekly weight ([1]; 0.18% of diet, week 3): 22.4 ± 0.8 grams | mean weekly weight ([1]; 0.18% of diet, week 4): 23.6 ± 1.5 grams | mean weekly weight ([1]; 0.35% of diet, week 0): 21.8 ± 2.2 grams and 22.4 ± 2.3 grams | mean weekly weight ([1]; 0.35% of diet, week 1): 20.0 ± 2.3 grams and 16.0 ± 1.6 grams | mean weekly weight ([1]; 0.35% of diet, week 2): 19.2 ± 1.8 grams and 20.2 ± 0.9 grams | mean weekly weight ([1]; 0.35% of diet, week 3): 19.6 ± 2.8 grams and 21.0 ± 0.8 grams | mean weekly weight ([1]; 0.35% of diet, week 4): 22.2 ± 2.4 grams and 22.2 ± 0.9 grams | mean weekly weight ([1]; 0.35% of diet, week 5): 21.8 ± 2.2 grams | mean weekly weight ([1]; 0.35% of diet, week 7): 23.2 ± 2.4 grams | mean weekly weight ± S.D. ([1]; week 0): 23.2 ± 1.3 grams | mean weekly weight ± S.D. ([1]; week 1): 21.8 ± 1.0 grams | mean weekly weight ± S.D. ([1]; week 2): 20.8 ± 1.0 grams | anti-weight effect (in words) ([1]; 400 mg/kg repeated (DHEA), cancer preventive dosages (19, 20)): produces an anti-weight effect | weekly weight (Table 13) ([1]; week 0): 21.2 ± 1.4 | weekly weight (Table 13) ([1]; week 1): 16.8 ± 1.6 | weekly weight (Table 13) ([1]; week 2): 16.7 ± 2.0 | weekly weight (Table 13) ([1]; week 3): 18.8 ± 1.1 | weekly weight (Table 13) ([1]; week 4): 19.0 ± 2.0 | weekly weight (Table 13) ([1]; week 5): 19.6 ± 2.8 | mean weekly weight ([1]; 0.7% of diet, week 0): 21.1 ± 2.8 grams and 22.0 ± 2.5 grams | mean weekly weight ([1]; 0.7% of diet, week 1): 15.2 ± 1.8 grams and 17.0 ± 1.9 grams | mean weekly weight ([1]; 0.7% of diet, week 2): 17.0 ± 2.0 grams and 17.8 ± 1.8 grams | mean weekly weight ([1]; 0.7% of diet, week 3): 17.8 ± 1.1 grams and 18.4 ± 1.8 grams | mean weekly weight ([1]; 0.7% of diet, week 4): 18.8 ± 1.1 grams and 19.2 ± 1.6 grams | mean weekly weight ([1]; 0.7% of diet, week 5): 18.2 ± 1.3 grams and 20.2 ± 1.9 grams | mean weekly weight ([1]; 0.7% of diet, week 6): 19.8 ± 2.0 grams | Anti-obesity Activity relative to DHEA ([1]; Table 14, DHEA = 1×): 1 × | Mean Seminal Vesicle plus Prostate Weight ± S.D. ([2]; 0.36% of diet, n = 5): 6.5 ± 1.2 mg/100 gm body weight | androgenic / anti-androgenic effect, seminal vesicle plus prostate weight (in words) [2]: significantly reduced seminal vesical plus prostate gland weight | Blood Glucose Levels (C57BL/KsJ-db/db mice; 0.4% of diet, week 0): 214 ± 59 mg/deciliter and 232 ± 28 mg/deciliter | Blood Glucose Levels (C57BL/KsJ-db/db mice; 0.4% of diet, week 1): 161 ± 19 mg/deciliter and 132 ± 14 mg/deciliter | Blood Glucose Levels (C57BL/KsJ-db/db mice; 0.4% of diet, week 2): 145 ± 19 mg/deciliter and 135 ± 37 mg/deciliter | Blood Glucose Levels (C57BL/KsJ-db/db mice; 0.4% of diet, week 3): 117 ± 12 mg/deciliter | Blood Glucose Levels (C57BL/KsJ-db/db mice; 0.4% of diet, week 4): 112 ± 4 mg/deciliter | Anti-diabetic Activity relative to DHEA (C57BL/KsJ-db/db mice; Table 15, DHEA = 1×): 1 × | Blood Glucose Levels (C57BL/KsJ-db/db mice; after 0.4% of diet, 24 hrs. on control diet): 192 ± 32 mg/deciliter | Blood Glucose Levels (C57BL/KsJ-db/db mice; after 0.4% of diet, 48 hrs. on control diet): 310 ± 37 mg/deciliter | inhibition at 0.1 µM [3]: 12% | Percent Inhibition (G6PDH) ([3]; Conc. 1 μm): 17% | inhibition at 1 µM ([3]; Conc. 1 μm): 36% | Percent Inhibition (G6PDH) ([3]; Conc. 10 μm): 57% | Percent Inhibition (G6PDH) ([3]; Conc. 10 μm, listed as 1): 53% | inhibition at 10 µM ([3]; Conc. 10 μm): 51% | Mean Uterine Weight ± S.D. (rat uterus; 60 mg/kg s.c.): 222 ± 77 mg/100 gm body weight

From patent publication US5804576A, “Derivatives of 5-androsten-17-ones and 5-androstan-17-ones” (Research Corporation Technologies, Inc., priority 1986, dated 1998)
